Measured values taken from patent US3946013A, “1,3-BIS(Beta-ethylhexyl)-5-amino-5-methylhexahydropyrimidine-pyridine- 3-carboxylate, process for its preparation and pharmaceutical compositions containing this compound” (Wulfing; Johann A., priority 1973, dated 1976).
Where a name gives a salt, the structure may show the parent alone.

Columns and labels:
[1] = solubility (testability in the bacteriostatic test); type: physicochemical; details: could not be tested in bacteriostatic test
[2] = tested on: female NMRI mice; assay: LD50 acute toxicity in mice (Litchfield and Wilcoxon); type: in vivo; details: for Toxicity, LD50 i.p. / Toxicity, LD50 p.o.: female NMRI mice 20-30 g, 10 days observation, 14400 min
[3] = antibacterial activity, general statement; type: cell-based
[4] = tested on: bacterial parent strains (Escherichia coli, Proteus vulgaris, Pseudomonas aeruginosa); assay: bacteriostatic activity (serial dilution in thioglycolate nutrient solution); type: cell-based; details: for concentration at which activity is (still) shown (text): after 6 days at 30°C; for Bacteriostatic activity in relation to concentration (table): solutions containing 100 mg hexetidine, incubated at 30°C for 6 days
Experimental: For a determination of bacteriostatic activity, solutions of hexetidine, hexetidine oxalate and hexetidine nicotinate having the following compositions were compared: The inoculum suspension was obtained by inoculation of a sterile Petri dish containing nutrient agar (standard I) with a test culture of bacterial parent strains (Escherichia coli, Proteus vulgaris, Pseudomonas aeruginosa) and incubation at 30°C for 24 hours. The suspension was either used immediately or stored at +4°C. The organisms grown in the Petri dish were elutriated with 5 ml physiological brine solution and diluted 1:10 with the same solution to a volume of 50 ml. Then 250 ml double concentrated thioglycolate solution (60 g/l) were mixed with 100 drops (about 5 ml) of the above 1:10 diluted primary culture of bacterial parent strains and shaken to obtain a uniform suspension. Serial dilutions were prepared for each of the above-mentioned compound solutions in the following concentrations, each comprising 10 test tubes of […]: hexetidine per ml: 1,000; 500; 250; 125; 62.5; about 31; about 16; about 8; about 4; about 2. Next, 5 ml double concentrated thioglycolate nutrient solution inoculated with the test organisms were added to each test tube by means of a pipet. Each test tube thus contained 50% of the final concentration. […]

[5] = LD50 acute toxicity in mice (Litchfield and Wilcoxon); type: in vivo; details: mouse, in vivo, po; female NMRI mice 20-30 g; 10 days observation
[6] = Saski and Shah 1965; Barkley et al. 1960/1961; cited from earlier work
[7] = listed as Hexetidine nicotinate

Compound: CCCCC(CC)CN1CN(CC(CC)CCCC)CC(C)(N)C1 (stereo not drawn) [hexetidine cinnamate]
- solubility [1]: extreme insolubility
- Toxicity, LD50 i.p. ([2]; listed as Hexetidine cinnamate): 54 mg/kg
- Toxicity, LD50 p.o. ([2]; listed as Hexetidine cinnamate): 1,740 mg/kg

Compound: CCCCC(CC)CN1CN(CC(CC)CCCC)CC(C)(N)C1 (stereo not drawn) [hexetidine nicotinate, 1,3-bis(β-ethylhexyl)-5-amino-5-methylhexahydropyrimidine pyridine-3-carboxylate]
- antibacterial activity compared with hexetidine [3]: particularly favorable increase in antibacterial activity
- Toxicity, LD50 i.p. [2, 7]: 63 mg/kg
- Toxicity, LD50 p.o. [2, 7]: 1,830 mg/kg
- toxicity of hexetidine after salt formation with nicotinic acid ([2]; relative to hexetidine, mice): substantially reduced
- concentration at which activity is (still) shown (text) [4, 7]: 62.5 γ
- Bacteriostatic activity in relation to concentration (table) [4, 7]: 62.5 γ

Compound: CCCCC(CC)CN1CN(CC(CC)CCCC)CC(C)(N)C1 (stereo not drawn) [hexetidine oxalate]
- Toxicity, LD50 i.p. ([2]; listed as Hexetidine oxalate): 23 mg/kg
- Toxicity, LD50 p.o. ([2]; listed as Hexetidine oxalate): 970 mg/kg
- concentration at which activity is (still) shown (text) ([4]; listed as Hexetidine oxalate): > 500 γ
- Bacteriostatic activity in relation to concentration (table) ([4]; listed as Hexetidine oxalate): 500 γ

Compound: CCCCC(CC)CN1CN(CC(CC)CCCC)CC(C)(N)C1 (stereo not drawn) [hexetidine, 1,3-bis(β-ethylhexyl)-5-amino-5-methylhexahydropyrimidine]
- LD50 at 240 h [5]: 960 mg/kg
- Toxicity, LD50 i.p. ([2]; listed as Hexetidine): 33 mg/kg
- concentration at which activity is (still) shown (text) [4]: 125 γ
- Bacteriostatic activity in relation to concentration (table) ([4]; listed as Hexetidine): 125 γ
- antibacterial activity (words, literature) [6]: remarkable antibacterial activity
